Test results as given in patent US6710084B2, “Inhibition of TNFα-initiated neutrophil response” (Brigham and Women's Hospital, priority 1999, dated 2004).

Columns and labels:
MIP-2 = MIP-2 in murine air pouch exudates (ELISA); assay type: in vivo, BALB/c mice
Method: (§1) Experiments were conducted as described in FIG. 5 legend. Quantitation for IL-1β, IL-4, IL-10, IL-13 and MIP-2 was performed using ELISA with air pouch cell-free exudates. […] Changes in IL-1β, MIP-2 and IL-4 were significant at all tested time intervals (p<0.01).
(§2) Human and mouse recombinant TNFα and human recombinant GM-CSF were obtained from Boehringer Mannheim (Indianapolis, Ind.). Dulbecco's PBS (Mg^++ and Ca^++-free), RPMI-1640 and FCS were purchased from Bio Whittaker Inc. (Walkersville, Md.). Ficoll-Hypaque was from Organon Teknika Corp. (Durham, N.C.) and Hank's balanced salt solution was purchased from Gibco BRL (Grand Island, N.Y.). Serum bovine albumin, dextran, antibiotics, L-glutamine, cytochrome C, superoxide dismutase and zymosan were obtained from Sigma (St. Louis, Mo.). The assessment of human IL-1β in supernatants was performed by using an immunometric assay with acetylcholine esterase (Cayman Chemical, Ann Arbor, Mich.). Murine IL-1β was assessed using an ELISA from Endogen (Woburn, Mass.). ELISAs for IL-4 and IL-10 were from Amersham (Arlington Heights, Ill.); MIP-2 and IL-13 ELISAs were from R&D Systems (Minneapolis, Minn.). LXA4 and ATL metabolically stable analogs were prepared and characterized, including nuclear magnetic resonance spectroscopy, as in (14). Concentrations of each LX analog were determined using an extinction coefficient of 50,000 M^−1.cm^−1.just prior to each experiment. Where indicated, statistical analyses were performed using Student's non-paired t-test (two-tailed), and significance (*) was considered to be attained when P was <0.05.
(§3) Exudates from selected time intervals were collected and cell-free supernatants assessed for the presence of these murine cytokines. TNFα induced maximal detectable amounts of MIP-2 and IL-1β within 90 minutes (not shown). 15 R/S-methyl-LXA4 (25 mnoles) inhibited TNFα-stimulated MIP-2 and IL-1β release by 48% and 30% respectively (FIG. 6). […] This stimulation of IL-4 was observed both in the absence as well as presence of TNFα. Neither IL-10 nor IL-13 was detected within the pouch exudates.

IL-1β messenger RNA = test: TNFα-triggered IL-1β gene expression in PMN (Northern blot); conditions: 100 nM compound plus TNFα 10 ng/ml; 6 h
Method: PMN were incubated with either 0.1% ethanol (vehicle) or 15 R/S-methyl-LXA4 at 10, 100, and 1000 nM, in the presence or absence of TNFα (10 ng/ml), for 6 h at 37° C. Northern blots were performed in order to detect IL-1β messenger RNA.
PMN were exposed to increasing concentrations of 15 R/S-methyl-LXA4, 16-phenoxy-LXA4 or native LXA4 in the presence of TNFα (10 ng/ml) or vehicle alone.

IL-1β [1] = test: IL-1β in murine air pouch exudates (ELISA); assay type: in vivo, BALB/c mice
Method: as §1, §2, §3

LXA4 receptor = LXA4 receptor (Homo sapiens, UniProt P25090); test: Involvement of LXA4 receptor in TNFα-stimulated IL-1β release (anti-LXA4-R antibodies)
Chain of LXA4 receptor (P25090 whole entry): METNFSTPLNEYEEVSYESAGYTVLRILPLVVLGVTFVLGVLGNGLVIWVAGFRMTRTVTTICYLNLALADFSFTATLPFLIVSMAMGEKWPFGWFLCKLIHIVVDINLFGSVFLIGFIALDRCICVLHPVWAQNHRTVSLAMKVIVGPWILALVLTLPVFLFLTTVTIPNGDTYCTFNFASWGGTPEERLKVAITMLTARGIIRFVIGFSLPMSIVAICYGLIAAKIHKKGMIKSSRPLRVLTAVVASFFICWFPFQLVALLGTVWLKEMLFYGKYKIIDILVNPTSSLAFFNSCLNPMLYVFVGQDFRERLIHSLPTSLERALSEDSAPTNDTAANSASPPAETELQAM
Method: PMN were incubated with either IgG purified from pre-immune serum (50 μg/ml) or anti-LXA4 receptor (50 μg/ml) for 1 h at 4° C., then exposed to agonists for 12 h at 37° C. and 5% CO2. Values are expressed as mean±SD from an experiment performed in triplicate, which is representative of three distinct experiments each performed with different donors (*p<0.01).
PMN were incubated with ˜50 μg/ml of either preimmune protein-A purified IgG or IgG directed against LXA4-R for 1 h at 4° C. prior to exposure to TNFα (10 ng/ml) and 15 R/S-methyl-LXA4 (100 nM).

IL-4 = IL-4 in murine air pouch exudates (ELISA); assay type: in vivo, BALB/c mice; conditions: both in the absence as well as presence of TNFα
Method: as §1
as §2, with “ELISAs for IL-4 and IL-10 were from Amersham (Arlington Heights, Ill.); MIP-2 and IL-13 ELISAs were from R&D Systems (Minneapolis, Minn.). LXA4 and ATL metabolically stable analogs were prepared and characterized, including nuclear magnetic resonance spectroscopy, as in (14).” left out, “Where indicated, statistical analyses were performed using Student's non-paired t-test (two-tailed), and significance (*) was considered to be attained when P was <0.05.” left out
Exudates from selected time intervals were collected and cell-free supernatants assessed for the presence of these murine cytokines. […] Neither IL-10 nor IL-13 was detected within the pouch exudates.

human PMN = test: TNFα-stimulated superoxide anion generation by human PMN (cytochrome C reduction); assay type: cell-based; conditions: for inhibition of TNFα-stimulated superoxide anion generation: 10 nM compound, 5 min, then TNFα 50 ng/ml
Method: Human PMN were incubated with either vehicle alone or indicated concentrations of LXA4, 15 R/S-methyl-LXA4 or 16-phenoxy-LXA4 for 5 min and then with TNFα (50 ng/ml) for an additional 10 min. Values are the mean±SEM for LXA4 (n=3), 15 R/S-methyl-LXA4 (n=4) or 16-phenoxy-LXA4 (n=3).
Venous blood from healthy donors was collected using sterile conditions using acid citrate dextrose (ACD) as an anticoagulant, and PMN were isolated as in (15). PMN were suspended in cold (4° C.) Hank's medium (supplemented with 1.6 mM Ca^++, 0.1% FCS, 2 mM L-glutamine, 1% penicillin, and 2% streptomycin, pH 7.4). […] To examine superoxide production, PMN (1.0×10^6/ml) were placed at 37° C. (3 min) and then exposed to either vehicle (0.1% ethanol) or synthetic LXA4, 15R/S-methyl LXA4 or 16-phenoxy-LXA4 for 5 min at 37° C. Before adding TNFα (50 ng/ml), PMN were incubated with cytochrome C (0.7 mg/ml) for 10 min at 37° C. […] reduction of cytochrome C was terminated by rapidly placing tubes in an ice-water bath. The extent of cytochrome C reduction in each supernatant was determined at 550 nm in reference to control values obtained when superoxide dismutase was added before a stimulus or vehicle control. Cytochrome C reduction was quantitated using the extinction coefficient of 21.1/mmol/L.
TNFα, although a modest agonist of O2^−generation by human PMN, is a physiologically relevant stimulus for the generation of reactive oxygen species (ROS) by human PMN that can play critical roles in local tissue injury during both inflammation and reperfusion (Tsujii, M., S. Kawano, S. Tsuji, H. Sawaoka, M. Hori, and R. N. DuBois. 1998. Cyclooxygenase regulates angiogenesis induced by colon cancer cells. Cell 93:705-716; Shibuya, H., N. Ohkohchi, S. Tsukamoto, and S. Satomi. 1997. Tumor necrosis factor-induced, superoxide-mediated neutrophil accumulation in cold ischemic/reperfused rat liver. Hepatology 26:113-120; Jaeschke, H., A. Farhood, and C. W. Smith. 1990. Neutrophils contribute to ischemia/reperfusion injury in rat liver in vivo. FASEB J. 4:3355-3359). In FIG. 1, the impact of LXA4 and ATL related bioactive stable analogs were evaluated on TNFα stimulated superoxide anion production. […] 15R/S-methyl-LXA4 covers both LXA4 and ATL in structure, and 16-phenoxy-LXA4 is a LXA4 analog (see FIG. 1).

IL-1β [2] = test: TNFα-induced IL-1β release by human PMN; assay type: cell-based; conditions: for inhibition of IL-1β release: 100 nM compound, human PMN
Description: Supernatants were collected, and IL-1β was quantitated by ELISA. Results are expressed as mean±SD of duplicates, and are from one experiment representative of n=3. […] Values represent the mean ±SEM, n=3. At all time intervals tested, TNFα induced a significant appearance of IL-1β over vehicle-treated cells (*p<0.01).
as §2

leukocyte infiltration = test: TNFα-induced leukocyte infiltration in murine air pouches
Method: One ml of sterile PBS containing either 0.1% ethanol, TNFα, 15 R/S-methyl-LXA4, or TNFα plus 15 R/S-methyl-LXA4 was injected into the pouches, and the exudates were collected at indicated time periods. The total number of leukocytes was counted as in Materials & Methods. The results are expressed as mean±SEM from three different mice for each point.
Six to eight week old male BALB/c mice were obtained from Taconic Farms (Germantown, N.Y.). Air pouches were raised on the dorsum by s.c. injection of 3 ml of sterile air on day 0 and day 3. All experiments were conducted on day 6 (16). Individual air pouches (one per mouse) were injected with either vehicle alone (0.1% ethanol), TNFα, 15 R/S-methyl-LXA4 or TNFα plus 15 R/S-methyl-LXA4, and each was suspended in 1 ml endotoxin-free PBS immediately before injection into pouch cavities. At given intervals, the mice were sacrificed and individual air pouches were lavaged three times with sterile PBS (1 ml). The exudates were centrifuged at 2000 RPM (5 min) and the supernatants were removed. Cell pellets were suspended in PBS (200 μl) for enumeration and assessed for viability. Fifty μl of each cell suspension was mixed with 150 μl 30% BSA and then centrifuged onto microscope slides at 500 RPM for 5 min using a cytospin centrifuge, air dried, and stained with Giemsa-Wright.
Also, inflammatory exudates were collected 4 h after injection with vehicle alone, TNFα, 15 R/S-methyl-LXA4 alone, or TNFα plus 15 R/S-methyl-LXA4, and cell types were enumerated.

IL-1β [3] = test: IL-1β levels in supernatants of PMN incubated with TNFα, GM-CSF or zymosan; assay type: cell-based, human
Description: as §2, with “<0.05. […]” for “<0.05.”

PMN = test: PMA- or FMLP-stimulated O2- production by PMN; assay type: cell-based, human
[4] = 25 mnoles, air pouch exudates (FIG. 6)
[5] = compound 25 nmoles plus TNFα 10 ng, 4 h post-injection
[6] = injected alone, 4 h post-injection, TNFα 10 ng or compound 25 nmoles

CCCCCC(C)(O)/C=C/C=C\C=C\C=C\[C@@H](O)[C@@H](O)CCCC(=O)OC (stereo partly drawn) [15 R/S-methyl-LXA4, 15R/S-methyl-LXA4-methyl ester] was tested, and the “inhibition of TNFα-stimulated MIP-2 release” value (MIP-2; [4]) was 48%, the “MIP-2 release, compound alone in the air pouch” value (MIP-2; without TNFα) was “did not stimulate” and the “decrease of IL-1β messenger RNA levels compared to TNFα alone” value (IL-1β messenger RNA) was “approximately 60%”. The “inhibition of TNFα-stimulated IL-1β release” value (IL-1β [1]; [4]) was 30%, the “IL-1β release, compound alone in the air pouch” value (IL-1β [1]; without TNFα) was “did not stimulate” and the “inhibition of IL-1β release” value (LXA4 receptor; 100 nM compound, TNFα 10 ng/ml, 12 h (FIG. 4)) was “about 50%”. For the same compound, the “IL-1β appearance when added together with anti-LXA4-R antibodies in the presence of TNFα” value (LXA4 receptor; 100 nM compound, antibodies ~50 μg/ml) was “did not further inhibit IL-1β appearance”, the “stimulation of IL-1β appearance within supernatants, agent alone” value (LXA4 receptor; without TNFα) was “neither anti-LXA4-R antibodies nor 15 R/S-LXA4 alone stimulated significant amounts of IL-1β” and the “appearance of IL-4 within the exudates” value (IL-4) was “stimulated the appearance of IL-4”. The “potency relative to native LXA4 as inhibitor of TNFα-stimulated superoxide generation” value (human PMN) was “approximately three times more potent”, the “inhibition of TNFα-stimulated superoxide anion generation” value (human PMN) was 81.3±14.1% and the “inhibition of TNFα-induced IL-1β release” value (IL-1β [2]; 10 nM compound, TNFα 10 ng/ml (FIG. 2B)) was “clear statistically significant inhibition”. For the same compound, the “time within which inhibition of IL-1β release was evident” value (IL-1β [2]; 10 nM compound, more prominent after 24 h) was at most 6 h, the “inhibition of IL-1β release” value (IL-1β [2]; TNFα 10 ng/ml) was “approximately 60%” and the “time at which inhibition of leukocyte recruitment was evident” value (leukocyte infiltration; 25 nmoles) was 1 h. The “inhibition of TNFα-stimulated recruitment of leukocytes to the air pouch” value (leukocyte infiltration; 25 nmoles into pouch, murine TNFα 10 ng/ml (FIG. 5)) was 62%, the “leukocyte infiltration at 8 h” value (leukocyte infiltration; 8 h, 25 nmoles (FIG. 5, insert)) was “remained significantly reduced” and the “reduction in leukocyte infiltration” value (leukocyte infiltration; between 2 h and 4 h, 25 nmoles) was “more than 60%”. For the same compound, the “Number of leukocytes present in the pouch: Eosinophils/Basophils” value (“Number … Eosinophils/Basophils” for short) (leukocyte infiltration; [5]) was 0.13 ± 0.01 x 10^6, the “Number of leukocytes present in the pouch: Monocytes/Macrophages” value (shortened to “Number … Monocytes/Macrophages”) (leukocyte infiltration; [5]) was 0.10 ± 0.01 x 10^6 and the “Number of leukocytes present in the pouch: Neutrophils” value (“Number … Neutrophils” below) (leukocyte infiltration; [5]) was 0.98 ± 0.10 x 10^6. For the same compound, the “Percent inhibition of TNFα-induced infiltration: Eosinophils/Basophils” value (leukocyte infiltration; [5]) was “(56.0%)”, the “Percent inhibition of TNFα-induced infiltration: Monocytes/Macrophages” value (leukocyte infiltration; [5]) was “(50%)” and the “Percent inhibition of TNFα-induced infiltration: Neutrophils” value (leukocyte infiltration; [5]) was “(59.1%)”. The “Number … Eosinophils/Basophils” value (leukocyte infiltration; [6]) was 0.03 ± 0.01 x 10^6, the “Number … Monocytes/Macrophages” value (leukocyte infiltration; [6]) was 0.14 ± 0.01 x 10^6 and the “Number … Neutrophils” value (leukocyte infiltration; [6]) was 0.25 ± 0.01 x 10^6. For the same compound, the “leukocyte infiltration after injection of the analog alone” value (leukocyte infiltration; without TNFα) was “did not cause a significant leukocyte infiltration” and the “mononuclear cell influx, compound alone” value (leukocyte infiltration; without TNFα, 4 h) was “small but statistically significant increase”.
For TNFα [reference compound], the “time to maximal detectable amounts of MIP-2” value (MIP-2; TNFα-injected pouches) was at most 90 min, the “time to maximal detectable amounts of IL-1β” value (IL-1β [1]; TNFα-injected pouches) was at most 90 min and the “Number … Eosinophils/Basophils” value (leukocyte infiltration; [6]) was 0.30 ± 0.01 x 10^6. The “Number … Monocytes/Macrophages” value (leukocyte infiltration; [6]) was 0.20 ± 0.01 x 10^6, the “Number … Neutrophils” value (leukocyte infiltration; [6]) was 2.40 ± 0.10 x 10^6 and the “time of maximal accumulation of leukocytes in the air pouch” value (leukocyte infiltration; murine TNFα 10 ng/ml) was 4 h. For the same compound, the “approximate EC50 for increase in IL-1β levels in supernatants” value (IL-1β [3]; agonist TNFα) was about 10 ng/mL.
COC(=O)CCCC(O)C(O)C=CC=CC=CC=CC(O)COc1ccccc1 (stereo not drawn) [16-phenoxy-LXA4, 16 phenoxy-lipoxin A4 methyl ester] was tested, and the “potency relative to native LXA4 as inhibitor of TNFα-stimulated superoxide generation” value (human PMN) was “approximately three times more potent”, the “inhibition of TNFα-stimulated superoxide anion generation” value (human PMN) was 93.7±3.2% and the “inhibition of IL-1β release” value (IL-1β [2]; TNFα 10 ng/ml) was “approximately 40%”.
CCCCC[C@H](O)/C=C/C=C\C=C\C=C\[C@@H](O)[C@@H](O)CCCC(=O)O (relative stereo) [LXA4, 5S, 6R, 15S-trihydroxy-7,9,13-trans-11-cis-eicosatetraenoic acid, reference compound] was tested, and the “inhibition of TNFα-stimulated superoxide anion generation” value (human PMN) was 34.3±2.3%, the “inhibition of FMLP-stimulated O2- production” value (PMN) was “neither LXA4 nor its analogs inhibit” and the “inhibition of PMA-stimulated O2- production” value (PMN; PMA 100 nM, n=3) was “neither LXA4 nor its analogs inhibit”. The “inhibition of IL-1β release” value (IL-1β [2]; TNFα 10 ng/ml) was “comparable” and the “effect on TNFα-induced IL-1β release” value (IL-1β [2]; LXA4 100 nM, TNFα 10 ng/ml, 20 h (FIG. 2A)) was “specifically inhibited”.
In the case of “GM-CSF: human recombinant GM-CSF, agonist of IL-1β release”, the “approximate EC50 for increase in IL-1β levels in supernatants” value (IL-1β [3]; agonist GM-CSF) is reported as about 10 U/ml.
